The subject of assay [1] is U87MG pLVX-IDH2 R140Q-neo cells. As to the kind of experiment: U87MG pLVX-IDH2 R140Q-neo cell based assay, 2-HG by LC-MS. The following applies: Homo sapiens, U-87 MG.
Assay [2] deals with IDH1 wt/IDH1 R132C heterodimer (Homo sapiens (Human), UniProt O75874, R132C). As to the kind of experiment: In vitro assay for IDH1m R132C inhibitors, IDH1 wt/IDH1 R132C heterodimer, NADPH depletion (diaphorase/resazurin). To be noted: NADPH/NADP. The assay is classed as biochemical. Put shortly:
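Remaining NADPH was measured by diaphorase/resazurin conversion (5 min, 25 °C) as resorufin fluorescence, Ex 544/Em 590. DMSO was diluted 1:50 into the reaction, and IC50s were derived.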
A general note: Resazurin is reduced to fluorescent resorufin, in cell work by metabolically active cells.

The test system of assay [3] is Neurosphere cells (TS603). Kind of assay: Cellular assay for IDH1m R132H inhibitors, 2-HG by LC-MS in neurosphere cells (TS603). The class given is cell-based. To be noted: 2-HG in media at 48 hours. Put shortly:
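TS603 neurosphere cells in NeuroCult medium were dosed with compound (0.25% DMSO final) at 37 C, 5% CO2. After 48 hours, medium 2-HG was measured by LC-MS. At 72 hours, viability was read by CellTiter-Glo luminescence.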

Assay [4] addresses IDH1 wt/IDH1 R132H heterodimer (Homo sapiens (Human), UniProt O75874, R132H). As to the kind of experiment: In vitro assay for IDH1m R132H inhibitors, IDH1 wt/IDH1 R132H heterodimer, NADPH depletion (diaphorase/resazurin). The class given is biochemical. To be noted: IDH1 wt/R132H heterodimer, NADPH/NADP, not saturated; read-out: IDH1 wt/R132H NADPH/NADP IC50 not saturated. Put shortly: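 Purified IDH1wt-his/IDH1R132H-flag heterodimer (sf9 co-expression) pre-incubated 1 hr at room temperature with compound and NADPH before α-KG addition. Remaining NADPH read by diaphorase/resazurin conversion to fluorescent resorufin, 5 min at 25° C. Compounds diluted 1:50 from DMSO; IC50 determined.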

The structures appear in SMILES notation. Some results are limits rather than exact numbers.

Chain of IDH1 wt/IDH1 R132H heterodimer (O75874 whole entry R132H): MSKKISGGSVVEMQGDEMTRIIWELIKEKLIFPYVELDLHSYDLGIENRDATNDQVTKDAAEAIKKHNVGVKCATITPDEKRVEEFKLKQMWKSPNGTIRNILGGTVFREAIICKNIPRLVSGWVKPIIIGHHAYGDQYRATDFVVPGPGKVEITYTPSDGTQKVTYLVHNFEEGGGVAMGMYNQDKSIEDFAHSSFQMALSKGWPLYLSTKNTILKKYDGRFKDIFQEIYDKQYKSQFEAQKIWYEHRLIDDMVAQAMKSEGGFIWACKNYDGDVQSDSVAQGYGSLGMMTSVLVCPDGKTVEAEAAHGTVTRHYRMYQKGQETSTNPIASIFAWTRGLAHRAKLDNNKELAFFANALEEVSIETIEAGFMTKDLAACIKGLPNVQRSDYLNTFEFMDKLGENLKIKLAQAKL
Chain of IDH1 wt/IDH1 R132H heterodimer (O75874 whole entry, stated change not applied): as the sequence (O75874 whole entry R132H) above, with H132R counted along it
Chain of IDH1 wt/IDH1 R132C heterodimer (O75874 whole entry R132C): as the sequence (O75874 whole entry R132H) above, with H132C counted along it
Chain of IDH1 wt/IDH1 R132C heterodimer (O75874 whole entry, stated change not applied): as the sequence (O75874 whole entry R132H) above, with H132R counted along it

In the case of `N#CC1(c2cc(Nc3nc(NCC(F)(F)F)nc(-c4cccc(C(F)(F)F)n4)n3)ccn2)CC1` [Compound 226], the IC50 in assay [1] is below 50 nM; in assay [2] it was 50 to 100 nM; in assay [3], below 50 nM; in assay [4], below 50 nM.

For `FC1(F)CCC(Nc2nc(NC3CCN(c4ncccn4)C3)nc(-c3cccc(C(F)(F)F)n3)n2)C1` (stereo not drawn) [Compound 227], the IC50 in assay [1] is 100 to 1000 nM; in assay [2] it was 50 to 100 nM; in assay [3] it was below 50 nM; in assay [4] it was below 50 nM.

In the case of `N#CC1(c2cc(Nc3nc(NC4CC5(C4)CC(F)(F)C5)nc(-c4cccc(C(F)(F)F)n4)n3)ccn2)CC1` [Compound 229], the IC50 is below 50 nM in assay [1], 50 to 100 nM in assay [2], below 50 nM in assay [3] and below 50 nM in assay [4].

In the case of `CC(C)(CC#N)Nc1nc(Nc2ccnc(C(C)(F)F)c2)nc(-c2cccc(C(F)(F)F)n2)n1` [Compound 231], the IC50 in assay [1] is below 50 nM; in assay [2], 50 to 100 nM; in assay [3], below 50 nM; in assay [4], below 50 nM.

For `FC1(F)CCC(Nc2nc(NC3CCC(F)(F)C3)nc(-c3nccc(C(F)(F)F)n3)n2)C1` (stereo not drawn) [Compound 237], the IC50 in assay [1], in assay [2], in assay [3] and in assay [4] was below 50 nM in each case.

For `CC(C)(O)CNc1nc(Nc2cc(F)cc(C#N)c2)nc(-c2cccc(C(F)(F)F)n2)n1` [Compound 244], the IC50 was below 50 nM in assay [1], 100 to 1000 nM in assay [2], below 50 nM in assay [3] and 50 to 100 nM in assay [4].

`CC(C)(C)Nc1nc(Nc2cc(F)cc(C#N)c2)nc(-c2nccc(C(F)(F)F)n2)n1` [Compound 245]: the IC50 is below 50 nM in assay [1], 100 to 1000 nM in assay [2], below 50 nM in assay [3] and 50 to 100 nM in assay [4].

On to `CC(C)(C#N)Nc1nc(Nc2ccnc(C(C)(F)F)c2)nc(-c2cccc(C(F)(F)F)n2)n1` [Compound 247], for which the IC50 in assay [1] was below 50 nM; in assay [2] it was 50 to 100 nM; in assay [3], below 50 nM; in assay [4] it was 50 to 100 nM.

On to `CC(CC#N)Nc1nc(Nc2ccnc(C(C)(F)F)c2)nc(-c2cccc(C(F)(F)F)n2)n1` (stereo not drawn) [Compound 250], for which the IC50 was below 50 nM in assay [1], 100 to 1000 nM in assay [2], below 50 nM in assay [3] and 50 to 100 nM in assay [4].

For the compound `FC1(F)CCC(Nc2nc(NC3CCC(F)(F)C3)nc(-c3cccc(OC(F)(F)F)n3)n2)C1` (stereo not drawn) [Compound 252], the IC50 in assay [1] is below 50 nM; in assay [2] it was 100 to 1000 nM; in assay [3], 50 to 100 nM; in assay [4] it was 50 to 100 nM.

`CC(C#N)Nc1nc(Nc2ccnc(C(C)(F)F)c2)nc(-c2cccc(C(F)(F)F)n2)n1` (stereo not drawn) [Compound 253]: the IC50 is below 50 nM in assay [1], 100 to 1000 nM in assay [2], below 50 nM in assay [3] and 50 to 100 nM in assay [4].

On to `FC1(F)CC(Nc2nc(NC3CC(F)(F)C3)nc(-c3nccc(C(F)(F)F)n3)n2)C1` [Compound 256], for which the IC50 was below 50 nM in assay [1], 50 to 100 nM in assay [2], below 50 nM in assay [3] and 100 to 1000 nM in assay [4].

For the compound `N#CC1(c2cc(Nc3nc(NC4CCC(F)(F)C4)nc(-c4nccc(C(F)(F)F)n4)n3)ccn2)CC1` (stereo not drawn) [Compound 261], the IC50 was below 50 nM in assay [1], 50 to 100 nM in assay [2], 50 to 100 nM in assay [3] and 100 to 1000 nM in assay [4].

Take `C[C@@H](Nc1nc(N[C@H](C)C2CC2)nc(-c2nccc(C(F)(F)F)n2)n1)C1CC1` [Compound 268]: the IC50 in assay [1] is 50 to 100 nM; in assay [2], below 50 nM; in assay [3], below 50 nM; in assay [4], 100 to 1000 nM.

In the case of `FC1(F)CCC(Nc2nc(NC3CCC(F)(F)CC3)nc(-c3nccc(C(F)(F)F)n3)n2)CC1` [Compound 293], the IC50 in assay [1] is 50 to 100 nM; in assay [2] it was 100 to 1000 nM; in assay [3] it was at least 1000 nM; in assay [4], 100 to 1000 nM.

The record behind these values is patent US10028961B2, “Therapeutically active compounds and their methods of use” (AGIOS PHARMACEUTICALS, INC., priority 2013, dated 2018).
